In patent publication US20040023972A1, “Use of substituted imidazo[1,2-a]-pyridin-, -pyrimidin-and-pyrazin-3-yl-amine derivatives in the preparation of medicaments for inhibiting NOS” (Gruenenthal GmbH, priority 2000, published 2004):

What follows are molecules tested against T1, NO synthase (Rattus norvegicus, UniProt P29476) (assay: HTS-NOS assay (NOS assay): conversion of radioactive arginine, cation-exchanger filter plate). Details: 10 μM.
T1 construct: the supernatant was then removed by decantation and frozen in portions at −80° C; from tissue; host or cells: rat cerebellum, 20,000 g supernatant of homogenate
Assay type: biochemical
Procedure, shortened: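 Percent inhibition was derived by comparing remaining radioactive arginine with compound-free controls. Arginine retained on phosphate cation-exchanger filters was counted after citrulline washout, following a 5-60 min room-temperature (25 °C) reaction of labelled arginine, NADPH-containing medium and rat cerebellar homogenate supernatant.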

Going from `C#[N+]CCCCCCN(C(C)=O)c1c(-c2ccccc2OC)nc2cc(C)cc(C)n12` [Example 240, (6-{acetyl-[2-(2-methoxy-phenyl)-5,7-dimethyl-imidazo[1,2-a]pyridin-3-yl]-amino}-hexyl)-methylidyne-ammonium] to `C#[N+]CCCCCCN(C(C)=O)c1c(-c2ccc(C)cc2)nc2cc(C)ccn12` [Example 279, {6-[acetyl-(7-methyl-2-p-tolyl-imidazo[1,2-a]pyridin-3-yl)-amino]-hexyl}-methylidyne-ammonium], the “HTS-NOS assay: % inhibition (10 μM)” value rises from 61% to 71%.

Going from `CC(=O)N(c1c(-c2ccccc2C(F)(F)F)nc2ccccn12)C(C)(C)C` [Example 245, N-tert-butyl-N-[2-(2-trifluorO-methyl-phenyl)-imidazo[1,2-a]pyridin-3-yl]-acetamide] to `[C-]#[N+]CCCCCCNc1c(-c2ccccc2C)nc2cc(C)ccn12` [Example 97, Methylidyne-[6-(7-methyl-2-o-tolyl-imidazo[1,2-a]pyridin-3-ylamino)-hexyl]-ammonium], the “HTS-NOS assay: % inhibition (10 μM)” value rises from 56% to 62%.

Same assay, conditions: read-out: HTS-NOS assay: % inhibition (10 μM)

Compared with `CC(=O)N(c1c(C)cccc1C)c1c(-c2ccc(C(=O)O)s2)nc2ccc(C)cn12` [Example 225, 5-{3-[acetyl-(2,6-dimethyl-phenyl)-amino]-6-methyl-imidazo[1,2-a]pyridin-2-yl}-thiophene-2-carboxylic acid], `CC(=O)N(c1c(-c2ccc(C(=O)O)s2)nc2ccccn12)C(C)(C)C` [Example 218, 5-[3-(acetyl-tert-butyl-amino)-imidazo[1,2-a]pyridin-2-yl]-thiophene-2-carboxylic acid] is higher in inhibition at 10 µM: 55% for the first, 60% for the second.

Going from `Cc1ccn2c(NC(C)(C)CC(C)(C)C)c(-c3cccc4ccccc34)nc2c1` [Example 63, (7-Methyl-2-naphthalen-1-yl-imidazo[1,2-a]-pyridin-3-yl)-(1,1,3,3-tetramethyl-butyl)-amine] to `Cc1ccn2c(NC(C)(C)CC(C)(C)C)c(-c3ccccc3C)nc2c1` [Example 46, (7-Methyl-2-o-tolyl-imidazo[1,2-a]pyridin-3-yl)-(1,1,3,3-tetramethyl-butyl)-amine], the inhibition at 10 µM rises from 52% to 59%.

Compared with `Cc1ccn2c(NC(C)(C)C)c(-c3cccc(O)c3)nc2c1` [Example 24, 3-(3-Tert-butylamino-7-methyl-imidazo[1,2-a]pyridin-2-yl)-phenol], `CCCCNc1c(-c2cccc(O)c2)nc2cc(C)ccn12` [Example 55, 3-(3-Butylamino-7-methyl-imidazo[1,2-a]-pyridin-2-yl)-phenol] is higher in inhibition at 10 µM: 59% for the first, 63% for the second.

`CC(=O)N(c1c(-c2ccc(C(=O)O)s2)nc2ccccn12)C(C)(C)CC(C)(C)C` [Example 176, 5-{3-[acetyl-(1,1,3,3-tetramethyl-butyl)-amino]-imidazo[1,2-a]pyridin-2-yl}-thiophene-2-carboxylic acid] and `CC(=O)N(c1c(-c2ccc(C(=O)O)s2)nc2cccc(C)n12)C(C)(C)C` [Example 183, 5-[3-(acetyl-tert-butyl-amino)-5-methyl-imidazo[1,2-a]pyridin-2-yl]-thiophene-2-carboxylic acid] are the same in inhibition at 10 µM: 50% for the first, 50% for the second.

Going from `Cc1cccn2c(NC(C)(C)C)c(C3CCCCC3)nc12` [Example 123, Tert-butyl-(2-cyclohexyl-8-methyl-imidazo[1,2-a]pyridin-3-yl)-amine] to `Cc1cc(C)n2c(NC(C)(C)CC(C)(C)C)c(C3CCCCC3)nc2c1` [Example 44, (2-Cyclohexyl-5,7-dimethyl-imidazo[1,2-a]-pyridin-3-yl)-(1,1,3,3-tetramethyl-butyl)-amine], the inhibition at 10 µM rises from 53% to 71%.

Compared with `Cc1ccn2c(NC(C)(C)CC(C)(C)C)c(-c3cccnc3)nc2c1` [Example 15, (7-Methyl-2-pyridin-3-yl-imidazo[1,2-a]-pyridin-3-yl)-(1,1,3,3-tetramethyl-butyl)-amine], `Cc1ccn2c(NC(C)(C)CC(C)(C)C)c(-c3ccc(C4OCCO4)o3)nc2c1` [Example 41, [2-(5-[1,3]Dioxolan-2-yl-furan-2-yl)-7-methyl-imidazo[1,2-a]pyridin-3-yl]-(1,1,3,3-tetramethyl-butyl)-amine] is lower in inhibition at 10 µM: 59% for the first, 57% for the second.

Going from `Cc1cc(C)n2c(NC(C)(C)CC(C)(C)C)c(-c3ccccc3C)nc2c1` [Example 38, (5,7-Dimethyl-2-o-tolyl-imidazo[1,2-a]-pyridin-3-yl)-(1,1,3,3-tetramethyl-butyl)-amine] to `Cc1cc(C)n2c(NC(C)(C)CC(C)(C)C)c(-c3ccc[nH]3)nc2c1` [Example 36, [5,7-Dimethyl-2-(1H-pyrrol-2-yl)-imidazo-[1,2-a]pyridin-3-yl]-(1,1,3,3-tetramethyl-butyl)-amine], the inhibition at 10 µM rises from 60% to 69%.

Going from `CC(=O)N(c1c(-c2ccncc2)nc2cc(C)ccn12)C(C)(C)CC(C)(C)C` [Example 166, N-(7-methyl-2-pyridin-4-yl-imidazo[1,2-a]pyridin-3-yl)-N-(1,1,3,3-tetramethylbutyl)-acetamide] to `CC(=O)N(c1c(-c2ccncc2)nc2cc(C)cc(C)n12)C(C)(C)CC(C)(C)C` [Example 146, N-(5,7-dimethyl-2-pyridin-4-yl-imidazo[1,2-a]pyridin-3-yl)-N-(1,1,3,3-tetramethyl-butyl)-acetamide], the inhibition at 10 µM falls from 61% to 59%.

Compared with `CC(=O)N(c1c(-c2ccc([N+](=O)[O-])o2)nc2cc(C)ccn12)C(C)(C)C` [Example 198, N-tert-butyl-N-[7-methyl-2-(5-nitro-furan-2-yl)-imidazo[1,2-a]pyridin-3-yl]-acetamide], `CC(=O)N(c1c(-c2ccco2)nc2cc(C)ccn12)C(C)(C)C` [Example 190, N-tert-butyl-N-(2-furan-2-yl-7-methyl-imidazo[1,2-a]pyridin-3-yl)-acetamide] is higher in inhibition at 10 µM: 54% for the first, 69% for the second.

First: CC(=O)N(c1c(C)nc2c(Br)cc(Br)cn12)C(C)(C)C [Example 288, N-tert-butyl-N-(6,8-dibromo-2-methyl-imidazo[1,2-a]pyridin-3-yl)-acetamide]
Second: CC(=O)N(c1c(C)nc2cc(C)ccn12)C(C)(C)CC(C)(C)C [Example 250, N-(2,7-dimethyl-imidazo[1,2-a]pyridin-3-yl)-N-(1,1,3,3-tetramethyl-butyl)-acetamide]
The inhibition at 10 µM of the first is higher: 62% for the first, 58% for the second.

Compared with `CC(=O)N(c1c(-c2ccco2)nc2cc(C)ccn12)C1CCCCC1` [Example 262, N-cyclohexyl-N-(2-furan-2-yl-7-methyl-imidazo[1,2-a]pyridin-3-yl)-acetamide], `CC(=O)N(c1c(-c2ccc([N+](=O)[O-])o2)nc2cc(C)ccn12)C1CCCCC1` [Example 178, N-cyclohexyl-N-[7-methyl-2-(5-nitro-furan-2-yl)-imidazo[1,2-a]pyridin-3-yl]-acetamide] is higher in inhibition at 10 µM: 54% for the first, 64% for the second.

Compared with `Cc1cc(C)n2c(NC(C)(C)C)c(C)nc2c1` [Example 14, Tert-butyl-(2,5,7-trimethyl-imidazo[1,2-a]-pyridin-3-yl)-amine], `Cc1ccc2nc(-c3ccc(C(=O)O)s3)c(NC(C)(C)C)n2c1` [Example 127, 5-(3-Tert-butylamino-6-methyl-imidazo[1,2-a]pyridin-2-yl)-thiophene-2-carboxylic acid] is lower in inhibition at 10 µM: 67% for the first, 52% for the second.

Going from `COc1cc(-c2nc3nc(Cl)cc(N)n3c2N(C(C)=O)C2CCCCC2)ccc1OC(C)=O` [Example 251, acetic acid 4-[3-(acetyl-cyclohexyl-amino)-5-amino-7-chloro-imidazo[1,2-a]-pyrimidin-2-yl]-2-methoxy-phenyl ester] to `CC(=O)N(c1c(-c2ccc(C(=O)O)s2)nc2cccc(C)n12)C1CCCCC1` [Example 234, 5-[3-(acetyl-cyclohexyl-amino)-5-methyl-imidazo[1,2-a]pyridin-2-yl]-thiophene-2-carboxylic acid], the inhibition at 10 µM rises from 51% to 58%.

Going from `CC(=O)N(c1c(-c2ccc(C(=O)O)o2)nc2c(C)cccn12)C(C)(C)CC(C)(C)C` [Example 230, 5-{3-[acetyl-(1,1,3,3-tetramethyl-butyl)-amino]-8-methyl-imidazo[1,2-a]pyridin-2-yl}-furan-2-carboxylic acid] to `CC(=O)N(c1c(-c2ccc(C)o2)nc2ccccn12)C(C)(C)C` [Example 220, N-tert-butyl-N-[2-(5-methyl-furan-2-yl)-imidazo[1,2-a]pyridin-3-yl]-acetamide], the inhibition at 10 µM rises from 52% to 61%.

Going from `CCCCN(C(C)=O)c1c(-c2ccccc2C)nc2ncccn12` [Example 206, N-butyl-N-(2-o-tolyl-imidazo[1,2-a]pyrimidin-3-yl)acetamide] to `CCCCN(C(C)=O)c1c(-c2cccc(O)c2)nc2ncccn12` [Example 284, N-butyl-N-[2-(3-hydroxy-phenyl)-imidazo[1,2-a]pyrimidin-3-yl]-acetamide], the inhibition at 10 µM falls from 54% to 51%.

Going from `CC(=O)N(c1c(-c2ccccn2)nc2cc(C)ccn12)C(C)(C)C` [Example 191, N-tert-butyl-N-(7-methyl-2-pyridin-2-yl-imidazo[1,2-a]pyridin-3-yl)-acetamide] to `CSc1ccc(-c2nc3cnccn3c2N(C(C)=O)C(C)(C)CC(C)(C)C)s1` [Example 235, N-[2-(5-methylsulfanyl-thiophen-2-yl)-imidazo[1,2-a]pyrazin-3-yl]-N-(1,1,3,3-tetramethyl-butyl)-acetamide], the inhibition at 10 µM rises from 57% to 58%.

First: CCCCNc1c(-c2ccc(N(C)C)c3ccccc23)nc2cnccn12 [Example 136, Butyl-[2-(4-dimethylamino-naphthalen-1-yl)-imidazo[1,2-a]pyrazin-3-yl]-amine]
Second: CCCCNc1c(-c2ccccc2OC)nc2ccc(C)cn12 [Example 138, Butyl-[2-(2-methoxy-phenyl)-6-methyl-imidazo[1,2-a]pyridin-3-yl]-amine]
The inhibition at 10 µM of the first is higher: 56% for the first, 52% for the second.

`COC(=O)CN(C(C)=O)c1c(-c2cccc(O)c2)nc2ccc(C)cn12` [Example 244, {acetyl-[2-(3-hydroxy-phenyl)-6-methyl-imidazo[1,2-a]pyridin-3-yl]-amino}-acetic acid methyl ester] gave an inhibition at 10 µM of 50%.
